Compound | melting point
CC1(C)NC(=O)N(CCC(COc2ccc(-c3ccc(C#N)cc3)cc2)N(O)C=O)C1=O (stereo not drawn) | 202 to 204 °C
CCCn1nc(CO)cc1OCc1ccc2ccccc2n1 | 98 to 99 °C
N#Cc1cccc(-c2ccc3c(c2)C2(CCCCC2)C(=NO)N3)c1 | 198 to 200 °C
COc1cc2nc(N)nc(-c3ccc(O)cc3Cl)c2cc1OC | 245 to 247 °C
CC1CCc2c(O)ccc3c(=O)c(C(=O)O)cn1c23 (stereo not drawn) | > 300 °C
Cc1ccc(CCOc2ccnc3c(F)cccc23)cc1 | 89 to 90 °C
CCOC(=O)c1cc2c(C)ccc3c2n1CCC3=O | 103 to 104 °C
CS(=O)(=O)Nc1ccc2[nH]c(=O)n(CCCCN3CC=C(c4ccccc4)CC3)c(=O)c2c1 | 193 to 195 °C
CN1CCCc2cc(OC(=O)Nc3ccc(Cl)c(C(F)(F)F)c3)ccc21 | 152 °C
CCCNC(=O)c1c(Cl)cccc1OC(C)(CC)CC | 100 to 102 °C
CCN(CC)C(=O)c1ccc2ccccc2c1-c1ccc(C)cc1 | 181 to 183 °C
O=C1c2ccccc2C(=O)c2c1cccc2N1CCC(C2CCNCC2)CC1 | 155 to 160 °C
CS(=O)(=O)CCNC(=O)c1cccc(-c2ccc3c(c2)C(Oc2ccc(Cl)cc2Cl)CC3)c1 (stereo not drawn) | 140 to 143 °C
COC(=O)C(=CNc1c(-c2ccccc2)csc1C(=O)O)SC | 90 to 92 °C
Cc1nc(C)c(-c2ccnc(Nc3ccc(N4CCCC4)cc3)n2)s1 | 192 to 193 °C
CC(C)(C)NC(=O)[C@@H]1C[C@H](N2CCOCC2)CN1C(=O)OC(C)(C)C | 172 to 173 °C
Cc1ccc(-c2cccc(/C=C/C(=O)Nc3ccc(CN4CCN(Cc5ccc6c(c5)OCO6)CC4)cc3)c2)cc1 | 204 to 207 °C
CCOC(=O)C1=C(COCc2nnn(CC(N)=O)n2)NC(C)=C(C(=O)OC)C1c1cccc(Cl)c1Cl (stereo not drawn) | 130 to 132 °C
O=C(Nc1ccc(CCNc2ncccn2)cc1)c1cccs1 | 191 to 192 °C
O=C(/C=C/C=C(c1ccc(F)cc1)c1ccc(F)cc1)Oc1ccc([N+](=O)[O-])cc1 | 112 to 114 °C
FC(F)(F)c1cc(Br)c(C(F)(F)F)cc1Br | 64 to 65 °C
Cc1c(N2C[C@@H](N)[C@@H](C(F)F)C2)c(F)cc2c(=O)c(C(=O)O)cn([C@@H]3C[C@@H]3F)c12 | 214 to 216 °C
C=CCOC(=O)c1ccc(NCCCCCCCCCCCCCCCC)cc1 | 81 to 83 °C
FC(F)(F)CNC(=S)NCC(F)(F)F | 152 to 153 °C
Cc1cccc(NC(=O)N[C@H]2C[C@@](N)(C(=O)O)[C@@H]3[C@@H](C(=O)O)[C@@H]32)c1 (relative stereo) | > 250 °C

Compound | melting point
CC(C)CCCSC1c2ccccc2C(=O)N1c1ccc2ccc(Cl)nc2n1 (stereo not drawn) | 141 °C
CC(=O)OCC1=C(C(=O)OC(C)(C)C)N2C(=O)C(N)C2SC1 (stereo not drawn) | 111 to 112 °C
COc1ccc(-c2cc(F)c(F)cc2-c2ccc(S(C)(=O)=O)cc2)cc1OC | 140 to 141 °C
COc1ccc(CN2C(=O)CN(Cc3ccc(C(=O)O)cc3)S2(=O)=O)c(OC)c1 | 175 to 177 °C
CCn1cnc2c(=O)[nH]c(N)nc21 | > 300 °C
COc1cc(N)c(Cl)cc1C(=O)NCC1CCN(CCCCCC(=O)c2c(C)oc3ccccc23)CC1 | 133 to 135 °C
N#Cc1cccnc1-n1cc(-c2ccc(Oc3ccccc3)cc2)c2c(N)ncnc21 | 242 °C
O=C(CNC(=O)c1ccccc1C(=O)O)Nc1ccc(C(=O)C[N+](=O)[O-])c(Cl)c1 | 206 to 209 °C
Cc1ccn2c(C)c(-c3ccc4sc(=O)n(C)c4c3)nc2c1 | 204 to 206 °C
CCOC(=O)Cc1ccc(NC(=O)C(CC(C)C)NS(=O)(=O)c2ccc(Cl)cc2)cc1 (racemic) | 117 to 120 °C
O=C(c1ccc(F)cc1)C1CCN(CCCn2c(=O)[nH]c3cc(C(F)(F)F)ccc32)CC1 | 160 °C
CC1(C)CCC(C)(C)c2cc(NC(=O)c3ccc(OCCN4CCOCC4)cc3)ccc21 | 130 to 132 °C
CCCc1c(OCCCC(=O)NCCc2cccnc2)ccc(C(C)=O)c1O | 94 to 96 °C
Cn1cc(-c2cc3cccnc3[nH]2)c2cc(OCC(=O)O)ccc21 | > 300 °C
Cc1ncc(N)cc1Nc1nccc(-c2cccnc2)n1 | 135 °C
CC1Oc2c(cc(CN3CCN(c4ccc(C(=O)NC5CC5)cc4)CC3)cc2C2CC2)NC1=O (stereo not drawn) | 202 to 207 °C
CCOC(=O)c1ccc(N2CCC(NCC(O)COc3ccc(N)nc3)CC2)nc1 (stereo not drawn) | 120 to 122 °C
CC(=O)OCc1cccc(Nc2nccc(-c3cnn(C(C)=O)c3-c3ccccc3)n2)c1 | 133 to 134 °C
Cc1ccnc2ccc(Cc3cnc(N)nc3N)cc12 | 262 to 268 °C
CCOC(=O)c1cc2c(=O)n(C)c3ccccc3n2c1 | 197 to 198 °C
COc1cn(-c2ccc(N3CCC(F)(F)C3)cc2F)nc(-c2ccnn2-c2ccccc2)c1=O | 195 to 197 °C
Oc1ncncc1Oc1ccccc1 | 186 to 188 °C
Cn1nc(S(C)=O)c(=O)c2ccccc21 (stereo not drawn) | 187 to 189 °C
CCc1nnc(-c2ccc(-c3ccccc3)nc2)n1-c1cccc(C(N)=O)c1C | 162 to 163 °C
O=C(O)c1cn2c(n1)COc1ccc(Cl)cc1-2 | 276 to 278 °C

Compound | melting point
CS(=O)(=O)c1ccc(-c2cc(C(CCCO[N+](=O)[O-])=NO)nn2-c2ccccc2)cc1 | 128 to 130 °C
C[C@H]1C[C@@H](Nc2ccccc2)c2ccccc2N1C(=O)c1ccccn1 (relative stereo) | 157 °C
O=C(c1ccc(-c2cc(-c3c[nH]nc3-c3ccccn3)ccn2)cc1)N1CCOCC1 | 155 °C
Cc1cccc(COc2cccc(OCc3ccc(C(C)(C)C)cc3)c2)c1C(=O)O | 122 to 123 °C
CCOP(=O)(CCOC(=O)c1c(I)c(NC(C)=O)c(I)c(NC(C)=O)c1I)OCC | 249 to 251 °C
CCCCCCCCCCCC(OO)OOC(CCCCCCCCCCC)OO (stereo not drawn) | 56 to 58 °C
COc1c[nH]c(=O)c([N+](=O)[O-])c1 | 179 °C
O=C(N[C@H]1CCN(CCc2ccc(F)cc2)C1)C1=c2ccccc2=CC=C2CC=CC=C21 | 127 to 128 °C
CCCNS(=O)(=O)c1c(C)cc(C)cc1C | 53 to 54 °C
O=c1c2c(n(-c3ccccc3)c3ncccc13)OCC2 | 245 to 247 °C
BrCCc1ccc([Si](c2ccccc2)(c2ccccc2)c2ccc(CCBr)cc2)cc1 | 220 °C
O=C(NCc1ccc(Cl)cc1)c1n[nH]c2ncc(I)cc2c1=O | > 300 °C
CCN1c2ncc(C=Cc3cccc(C)c3)cc2C(=O)N(C)c2cccnc21 | 207 to 208 °C
CCn1nc(-c2ccccc2)c(C(C)=O)c(Nc2cc(Br)cc3cccnc23)c1=O | 147 to 148 °C
COc1ccc(CNc2nc(N3CCC(C(=O)O)CC3)nc3sc(Cl)cc23)cc1Cl | > 250 °C
NS(=O)(=O)c1ccc(SCCO)s1 | 46.5 to 47.5 °C
COC(=O)CS(=O)(=O)CCCCCCn1nc(-c2ccccc2)c(-c2ccccc2)c1-c1ccccc1 | 92.5 to 94.5 °C
CCOC(=O)N1CCN(c2ccc(OC[C@H]3CCn4cc([N+](=O)[O-])nc4O3)cc2)CC1 | 218 °C
c1nc2c(cc1NC1=NCCN1)COCC2 | 201 to 202 °C
O=[N+]([O-])c1ccc(-n2ccnn2)cc1 | 205 to 206 °C
CC(C)(C)OC(=O)NCCc1cccc(OCCC2Oc3ccccc3N(Cc3cccc(Cl)c3)C2=O)c1 (stereo not drawn) | 107 to 108 °C
CC(C)c1cccc(C(C)C)c1NC(=O)CC1=C(c2ccccc2)c2cc(Cl)ccc2N(C)C1 | 192 to 194 °C
CCCCc1nc2ccccn2c(=O)c1-c1ccc(N[C@@H]2CCN(C)C2)cc1 | 64 to 66 °C
CCc1cc(O)cc2c3c([nH]c12)C(CC)(CC(=O)OC)OCC3 (stereo not drawn) | 153 to 154 °C
N=c1cc(NC(=S)NCc2ccccc2)nc2n1CCCS2 | 189 to 190 °C

Compound | melting point
O=C(c1cc(Br)ccc1[N+](=O)[O-])C(Br)C(Br)c1cccc(Br)c1 (stereo not drawn) | 153 to 155 °C
CCOC(=O)c1c(Nc2ccc(F)cc2[N+](=O)[O-])sc2c1CCCC2 | 140 to 142 °C
NC(CCOS(=O)(=O)c1ccccc1)C(=O)Nc1ccccc1 (stereo not drawn) | 89 °C
Cc1nc2c(N)nc3ccccc3c2n1CCOCCNS(=O)(=O)C(C)C | 172 to 175 °C
COCc1c(CNS(=O)(=O)c2cccc(Cl)c2)nn(-c2ccc(Cl)cc2Cl)c1-c1ccc(Cl)cc1 | 154 °C
CN1C(=O)Cc2cc(C3=NNC(=O)C4CCC34)ccc21 (stereo not drawn) | 256 to 259 °C
COc1cc2c(cc1OC)/C(=N/OCc1ccc3nonc3c1)CCC2 | 139 to 140 °C
N#Cc1ccccc1C#CCOCCn1cnc2c(N)nc3ccccc3c21 | 180 to 183 °C
COC(=O)c1cc(Cl)cc2c1OCCN2C | 91 to 92 °C
CCC(CC(=O)NC(=O)OC(C)(C)C)Nc1ccc(Cl)cc1 (stereo not drawn) | 93 to 94 °C
O=C(NCCc1c[nH]c2ccc(C(=O)O)cc12)OCc1ccccc1 | 186 to 188 °C
CN(CCCCNC(=NCCCOc1cccc(CN2CCCCC2)c1)NC#N)CCN(Cc1ccc(F)cc1)c1ccccn1 | 84 to 86 °C
Cc1cc(-c2nc3cccnn3c2-c2ccnc(NC(N)=O)c2)ccc1F | 254 to 255 °C
Nc1ccc(-c2nc3cc(OCc4ccccc4)ccc3s2)c(Cl)c1 | 119 to 121 °C
COc1ccccc1I | 44.5 to 46.5 °C
COc1ccc(C2(C#N)CCC(=O)CC2)cc1OC | 111 to 112 °C
CCOC(=O)CC(=O)N(C)c1ccc(Cl)cc1N | 112 to 114 °C
CCCCCCCCCCCCCCCCCCNC(=O)C(N)=O | 169 °C
CC(=O)OC1C=CC2(C)C(=CCC3C2CCC2(C)C(C(C)CCCC(C)C)CCC32)C1 (stereo not drawn) | 73 to 75 °C
CN(C(=O)CCCOc1ccc2nc3[nH]c(=O)n(C)c3cc2c1)C1CCCCCC1 | 234 to 236 °C
Cc1ccc(-c2nc3ccccc3[nH]2)nc1 | 229 to 230 °C
C#Cc1cn(-c2c(Cl)cc(C(F)(F)F)cc2Cl)nc1C(F)(F)F | 95 to 98 °C
Nc1cc2[nH]c(=O)oc2cc1NC(=O)C(=O)N1CCC(Cc2ccccc2)CC1 | 296 °C

Source: a melting point compilation (Tetko et al.; mined from patent text by program, amines drawn as free bases though some values may be those of a salt)
